Laboratory results from publication PMC9253027, “Methyl probes in proteins for determining ligand binding mode in weak protein–ligand complexes” (Scientific Reports, 2022).

Target: T1, EcDsbA (DsbA, oxidized) (Escherichia coli, UniProt P0AEG4)
T1 construct: 21 kDa oxidized EcDsbA
Assay: X-ray crystal structure ([…] Å, soaking), intermolecular NOEs/NMR2, KD from HSQC chemical shift perturbation titration
Assay type: binding

T1 sequence (P0AEG4 20-208): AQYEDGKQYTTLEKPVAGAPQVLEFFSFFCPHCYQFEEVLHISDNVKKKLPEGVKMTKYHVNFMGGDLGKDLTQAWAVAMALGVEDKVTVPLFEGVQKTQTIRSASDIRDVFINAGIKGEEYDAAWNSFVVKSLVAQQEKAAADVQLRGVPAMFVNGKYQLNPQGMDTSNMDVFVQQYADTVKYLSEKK

O=C(O)c1sc(CCCc2ccccc2)nc1-c1ccccc1 [compound 1, phenylthiazole 1]
Kd: ~900 µM
